Measurements reported in the supplement of paper PMC10307832.

Legend:
Experiment in all cases: relative viability (nuclei count vs DMSO), 5 days (fraction); higher = more cells survive
[1] = system: NCI-H3122
Procedure, shortened: (§1)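 One day after seeding in 1536-well plates, lung cancer cell lines were dosed by pin tool. Dosing was either single-drug or a fixed anchor-drug dose plus five library-drug doses (not always all listed) in √10 steps. After 5 days, nuclei were stained in one fix-and-stain step and counted on 4× images, and relative viability is the nuclei count of treated wells over that of vehicle wells, given as the median of duplicate plates.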

[2] = system: RERF-LC-KJ
Procedure, shortened: as §1

[3] = system: SK-LU-1
Procedure, shortened: as §1

[4] = system: LOU-NH91
Procedure, shortened: as §1

[5] = system: EMC-BAC-2
Procedure, shortened: as §1

[6] = system: NCI-H1666
Procedure, shortened: as §1

[7] = system: HCC-827
Procedure, shortened: as §1

[8] = system: SW 1573
Procedure, shortened: as §1

[9] = system: ChaGo-K-1
Procedure, shortened: as §1

[10] = system: NCI-H1975
Procedure, shortened: as §1

[11] = system: HCC-366
Procedure, shortened: as §1

[12] = system: NCI-H2085
Procedure, shortened: as §1

[13] = system: NCI-H23
Procedure, shortened: as §1

[14] = system: NCI-H2405
Procedure, shortened: as §1

[15] = system: LXF-289
Procedure, shortened: as §1

[16] = system: LU99A
Procedure, shortened: as §1

[17] = system: LCLC-103H
Procedure, shortened: as §1

[18] = system: NCI-H2126
Procedure, shortened: as §1

[19] = system: NCI-H1563
Procedure, shortened: as §1

[20] = system: HCC-78
Procedure, shortened: as §1

[21] = system: HCC-44
Procedure, shortened: as §1

[22] = system: EPLC-272H
Procedure, shortened: as §1

In the case of `C[C@@H]1CN(CC(=O)Nc2ccc3c(c2)Cc2cccc(-c4cc(=O)cc(N5CCOCC5)o4)c2S3)C[C@H](C)O1` + CC(C)C[C@H](NC(=O)[C@H](Cc1ccccc1)NC(=O)c1cnccn1)B(O)O [Bortezomib] (partner 0.002 µM), the relative viability ([1]; first compound 0.04 µM) is reported as 1.06, the relative viability ([1]; first compound 0.1265 µM) is reported as 0.977 and the relative viability ([1]; first compound 0.4 µM) is reported as 1.02. For the same compound, the relative viability ([1]; first compound 4 µM) was 0.969, the relative viability ([2]; first compound 0.04 µM) was 1.24 and the relative viability ([2]; first compound 0.1265 µM) was 1.17. It also gave a relative viability ([2]; first compound 0.4 µM) of 1.07, a relative viability ([2]; first compound 4 µM) of 0.998 and a relative viability ([3]; first compound 0.04 µM) of 1.17. It also gave a relative viability ([3]; first compound 0.1265 µM) of 1.43, a relative viability ([3]; first compound 0.4 µM) of 1.09 and a relative viability ([3]; first compound 4 µM) of 1.13. It also gave a relative viability ([4]; first compound 0.04 µM) of 0.495, a relative viability ([4]; first compound 0.1265 µM) of 0.446 and a relative viability ([4]; first compound 0.4 µM) of 0.428. For the same compound, the relative viability ([4]; first compound 4 µM) was 0.527, the relative viability ([5]; first compound 0.04 µM) was 1.07 and the relative viability ([5]; first compound 0.1265 µM) was 1.1. It also gave a relative viability ([5]; first compound 0.4 µM) of 1.06, a relative viability ([5]; first compound 4 µM) of 0.985 and a relative viability ([6]; first compound 0.04 µM) of 0.872. It also gave a relative viability ([6]; first compound 0.1265 µM) of 0.993, a relative viability ([6]; first compound 0.4 µM) of 0.823 and a relative viability ([6]; first compound 4 µM) of 0.643. It also gave a relative viability ([7]; first compound 0.04 µM) of 1.01, a relative viability ([7]; first compound 0.1265 µM) of 1.02 and a relative viability ([7]; first compound 0.4 µM) of 1.06. It also gave a relative viability ([7]; first compound 4 µM) of 1.09, a relative viability ([8]; first compound 0.04 µM) of 1.17 and a relative viability ([8]; first compound 0.1265 µM) of 1.15. It also gave a relative viability ([8]; first compound 0.4 µM) of 0.926, a relative viability ([8]; first compound 4 µM) of 0.976 and a relative viability ([9]; first compound 0.1265 µM) of 1.02. The relative viability ([9]; first compound 0.4 µM) was 0.936, the relative viability ([9]; first compound 4 µM) was 0.87 and the relative viability ([10]; first compound 0.04 µM) was 0.394. The relative viability ([10]; first compound 0.1265 µM) was 0.415, the relative viability ([10]; first compound 0.4 µM) was 0.39 and the relative viability ([10]; first compound 4 µM) was 0.27. For the same compound, the relative viability ([11]; first compound 0.04 µM) was 0.999, the relative viability ([11]; first compound 0.1265 µM) was 1.04 and the relative viability ([11]; first compound 0.4 µM) was 1.24. The relative viability ([11]; first compound 4 µM) was 0.978, the relative viability ([12]; first compound 0.04 µM) was 0.999 and the relative viability ([12]; first compound 0.1265 µM) was 1.04. For the same compound, the relative viability ([12]; first compound 0.4 µM) was 0.975, the relative viability ([12]; first compound 4 µM) was 0.805 and the relative viability ([13]; first compound 0.04 µM) was 1.27. For the same compound, the relative viability ([13]; first compound 0.1265 µM) was 1.21, the relative viability ([13]; first compound 0.4 µM) was 1.03 and the relative viability ([13]; first compound 4 µM) was 0.991. The relative viability ([14]; first compound 0.04 µM) was 0.984, the relative viability ([14]; first compound 0.1265 µM) was 0.995 and the relative viability ([14]; first compound 0.4 µM) was 0.978. It also gave a relative viability ([14]; first compound 4 µM) of 0.994, a relative viability ([15]; first compound 0.04 µM) of 0.996 and a relative viability ([15]; first compound 0.1265 µM) of 0.977. For the same compound, the relative viability ([15]; first compound 0.4 µM) was 1.02, the relative viability ([15]; first compound 4 µM) was 0.999 and the relative viability ([16]; first compound 0.04 µM) was 1.11. The relative viability ([16]; first compound 0.1265 µM) was 1.15, the relative viability ([16]; first compound 0.4 µM) was 1.11 and the relative viability ([16]; first compound 4 µM) was 1.1. The relative viability ([17]; first compound 0.04 µM) was 1.19, the relative viability ([17]; first compound 0.1265 µM) was 1.03 and the relative viability ([17]; first compound 0.4 µM) was 1.09. It also gave a relative viability ([17]; first compound 4 µM) of 0.999, a relative viability ([18]; first compound 0.04 µM) of 1.13 and a relative viability ([18]; first compound 0.1265 µM) of 1.12. The relative viability ([18]; first compound 0.4 µM) was 1.17, the relative viability ([18]; first compound 4 µM) was 1.06 and the relative viability ([19]; first compound 0.04 µM) was 0.89. For the same compound, the relative viability ([19]; first compound 0.1265 µM) was 1.01, the relative viability ([19]; first compound 0.4 µM) was 0.828 and the relative viability ([19]; first compound 4 µM) was 0.797. It also gave a relative viability ([20]; first compound 0.04 µM) of 0.404, a relative viability ([20]; first compound 0.1265 µM) of 0.484 and a relative viability ([20]; first compound 0.4 µM) of 0.431. It also gave a relative viability ([20]; first compound 4 µM) of 0.432, a relative viability ([21]; first compound 0.04 µM) of 0.952 and a relative viability ([21]; first compound 0.1265 µM) of 0.938. For the same compound, the relative viability ([21]; first compound 0.4 µM) was 0.982, the relative viability ([21]; first compound 4 µM) was 0.796 and the relative viability ([22]; first compound 0.04 µM) was 0.925. It also gave a relative viability ([22]; first compound 0.1265 µM) of 0.894, a relative viability ([22]; first compound 0.4 µM) of 1.03 and a relative viability ([22]; first compound 4 µM) of 0.993.

`CC(C)Oc1cc(Nc2nc(N[C@@H](C)c3ccc(F)cn3)ncc2Cl)n[nH]1` [AZ23] + CC(C)C[C@H](NC(=O)[C@H](Cc1ccccc1)NC(=O)c1cnccn1)B(O)O [Bortezomib] (partner 0.002 µM) showed a relative viability ([1]; first compound 0.01 µM) of 1.04, a relative viability ([1]; first compound 0.03162 µM) of 1.02 and a relative viability ([1]; first compound 0.3162 µM) of 1.12. It also gave a relative viability ([2]; first compound 0.01 µM) of 1.23, a relative viability ([2]; first compound 0.03162 µM) of 1.31 and a relative viability ([2]; first compound 0.3162 µM) of 1.17. The relative viability ([3]; first compound 0.03162 µM) was 1.33, the relative viability ([3]; first compound 0.3162 µM) was 1.26 and the relative viability ([4]; first compound 0.01 µM) was 0.535. For the same compound, the relative viability ([4]; first compound 0.03162 µM) was 0.546, the relative viability ([4]; first compound 0.3162 µM) was 0.519 and the relative viability ([5]; first compound 0.01 µM) was 1.2. For the same compound, the relative viability ([5]; first compound 0.03162 µM) was 1.11, the relative viability ([5]; first compound 0.3162 µM) was 1.16 and the relative viability ([6]; first compound 0.01 µM) was 0.725. For the same compound, the relative viability ([6]; first compound 0.03162 µM) was 0.878, the relative viability ([6]; first compound 0.3162 µM) was 0.889 and the relative viability ([7]; first compound 0.01 µM) was 1.16. For the same compound, the relative viability ([7]; first compound 0.03162 µM) was 1.06, the relative viability ([7]; first compound 0.3162 µM) was 1.08 and the relative viability ([8]; first compound 0.01 µM) was 1.24. It also gave a relative viability ([8]; first compound 0.03162 µM) of 1.2, a relative viability ([8]; first compound 0.3162 µM) of 1 and a relative viability ([9]; first compound 0.01 µM) of 0.96. It also gave a relative viability ([9]; first compound 0.03162 µM) of 1.22, a relative viability ([9]; first compound 0.3162 µM) of 1.16 and a relative viability ([10]; first compound 0.01 µM) of 0.393. It also gave a relative viability ([10]; first compound 0.03162 µM) of 0.372, a relative viability ([10]; first compound 0.3162 µM) of 0.375 and a relative viability ([11]; first compound 0.01 µM) of 1.26. For the same compound, the relative viability ([11]; first compound 0.03162 µM) was 1.34, the relative viability ([11]; first compound 0.3162 µM) was 1.1 and the relative viability ([12]; first compound 0.01 µM) was 0.991. It also gave a relative viability ([12]; first compound 0.03162 µM) of 1.03, a relative viability ([12]; first compound 0.3162 µM) of 1.01 and a relative viability ([13]; first compound 0.03162 µM) of 1.12. It also gave a relative viability ([13]; first compound 0.3162 µM) of 1.04, a relative viability ([14]; first compound 0.01 µM) of 0.963 and a relative viability ([14]; first compound 0.03162 µM) of 1.02. For the same compound, the relative viability ([14]; first compound 0.3162 µM) was 0.948, the relative viability ([15]; first compound 0.01 µM) was 1.11 and the relative viability ([15]; first compound 0.03162 µM) was 1.05. For the same compound, the relative viability ([15]; first compound 0.3162 µM) was 0.979, the relative viability ([16]; first compound 0.01 µM) was 1.13 and the relative viability ([16]; first compound 0.03162 µM) was 1.2. The relative viability ([16]; first compound 0.3162 µM) was 1.13, the relative viability ([17]; first compound 0.01 µM) was 1.01 and the relative viability ([17]; first compound 0.03162 µM) was 1.26. The relative viability ([17]; first compound 0.3162 µM) was 1.14, the relative viability ([18]; first compound 0.01 µM) was 1.18 and the relative viability ([18]; first compound 0.03162 µM) was 1.18. For the same compound, the relative viability ([18]; first compound 0.3162 µM) was 1.09, the relative viability ([19]; first compound 0.01 µM) was 0.931 and the relative viability ([19]; first compound 0.03162 µM) was 1.01. The relative viability ([19]; first compound 0.3162 µM) was 0.816, the relative viability ([20]; first compound 0.01 µM) was 0.395 and the relative viability ([20]; first compound 0.03162 µM) was 0.507. It also gave a relative viability ([20]; first compound 0.3162 µM) of 0.335, a relative viability ([21]; first compound 0.01 µM) of 0.88 and a relative viability ([21]; first compound 0.03162 µM) of 1.07. The relative viability ([21]; first compound 0.3162 µM) was 0.912, the relative viability ([22]; first compound 0.01 µM) was 0.942 and the relative viability ([22]; first compound 0.03162 µM) was 1.02.
